Experimental data: ChEMBL document CHEMBL4312025, “Synthesis, antiproliferative activity and DNA/RNA-binding properties of mono- and bis-(1,2,3-triazolyl)-appended benzimidazo[1,2-a]quinoline derivatives” (Eur J Med Chem, 2020)
Activity calls are given as the source filed them. The calls are words filed in the database; no cut-off is given here.

What was measured:
[1] = test system: HCT-116; assay: Growth inhibition of human HCT116 cells incubated for 72 hrs by MTT assay; type: functional; conditions: HCT-116, 72 h
[2] = test system: MCF7; assay: Growth inhibition of human MCF7 cells incubated for 72 hrs by MTT assay; type: functional; conditions: MCF7, 72 h
[3] = test system: NCI-H460; assay: Growth inhibition of human H460 cells incubated for 72 hrs by MTT assay; type: functional; conditions: NCI-H460, 72 h
[4] = Growth inhibition of human HaCaT cells incubated for 72 hrs by MTT assay; type: cell-based
[5] = test system: Calf thymus DNA; assay: Binding affinity to calf thymus dsDNA assessed as binding constant in sodium cacodylate buffer at pH 7 by fluorescence spectroscopy; type: nucleic-acid assay; conditions: Bos taurus
[6] = test system: Calf thymus DNA; assay: Binding affinity to calf thymus dsDNA assessed as ratio for bound compound to polynucleotide in sodium cacodylate buffer at pH 7 by fluorescence spectroscopy based Scatchard analysis; type: nucleic-acid assay; conditions: Bos taurus
[7] = test system: Calf thymus DNA; assay: Binding affinity to calf thymus dsDNA assessed as ratio for fluorescence intensity of compound to fluorescence intensity for compound-polynucleotide complex in sodium cacodylate buffer at pH 7 by fluorescence spectroscopy based Scatchard method; type: nucleic-acid assay; conditions: Bos taurus
[8] = test system: Calf thymus DNA; assay: Binding affinity to calf thymus dsDNA assessed as change in melting temperature in sodium cacodylate buffer at pH 7 at compound:polynucleotide concentration ratio of 0.2 by thermal denaturation assay; type: nucleic-acid assay; conditions: Bos taurus
[9] = test system: Poly(dA-dU)oligonucleotide; assay: Binding affinity to polyA-polyU dsRNA (unknown origin) assessed as change in melting temperature in sodium cacodylate buffer at pH 7 at compound:polynucleotide concentration ratio of 0.2 by thermal denaturation assay; type: nucleic-acid assay
[10] = test system: HCT-116; assay: Cell cycle arrest in human HCT116 cells at 0.5 to 1 uM incubated for 24 and 48 hrs by propidium iodide staining based flow cytometry; type: functional
[11] = Drug uptake in cytoplasm of human H460 cells assessed as perinuclear reticular staining at 1 uM incubated for 15 mins by fluorescence microscopy; type: ADME, cell-based; conditions: nci-h460, 0.25 h
[12] = Drug uptake in nucleus of human H460 cells at 1 uM incubated for 15 mins by fluorescence microscopy; type: ADME, cell-based; conditions: nci-h460, 0.25 h
[13] = Solubility of the compound in 0.05 M sodium cacodylate buffer with <0.01% DMSO upto 1X10'-5 mol/dm3 by UV/Visible spectra analysis; type: physicochemical
[14] = test system: Calf thymus DNA; assay: Binding affinity to calf thymus ds-DNA assessed as decrease in emission intensity of the compound in sodium cacodylate buffer at pH 7 at 1X10'-6 mol/dm3 by fluorescence spectroscopy; type: nucleic-acid assay; conditions: Bos taurus
[15] = test system: Poly(dA-dU)oligonucleotide; assay: Binding affinity to polyA-polyU dsRNA (unknown origin) assessed as decrease in emission intensity of the compound in sodium cacodylate buffer at pH 7 at 1X10'-6 mol/dm3 by fluorescence spectroscopy; type: nucleic-acid assay
[16] = test system: Calf thymus DNA; assay: Binding affinity to calf thymus dsDNA assessed as stabilization of mixed DNA base pairs in sodium cacodylate buffer at pH 7 at compound:polynucleotide concentration ratio of 0.2 by thermal denaturation assay; type: nucleic-acid assay; conditions: Bos taurus
[17] = test system: HCT-116; assay: Cytotoxicity against human HCT116 cells assessed as induction of massive cell death at 5 uM incubated for 24 to 48 hrs; type: functional, cell-based
[18] = test system: Calf thymus DNA; assay: Binding affinity to calf thymus dsDNA assessed as intercalating activity by measuring weak negative ICD band between 300 and 330 nm in sodium cacodylate buffer at pH 7 at compound:polynucleotide concentration ratio of 0.1 to 0.3 by CD spectroscopy; type: nucleic-acid assay; conditions: Bos taurus
[19] = test system: Poly(dA-dU)oligonucleotide; assay: Binding affinity to polyA-polyU dsRNA (unknown origin) assessed as intercalating activity by measuring decrease in CD spectra of polynucleotides in sodium cacodylate buffer at pH 7 at compound:polynucleotide concentration ratio of 0.1 to 0.4 by CD spectroscopy; type: nucleic-acid assay
[20] = test system: Calf thymus DNA; assay: Binding affinity to calf thymus dsDNA assessed as intercalating activity by measuring decrease in CD spectra of polynucleotides in sodium cacodylate buffer at pH 7 at compound:polynucleotide concentration ratio of 0.1 to 0.3 by CD spectroscopy; type: nucleic-acid assay; conditions: Bos taurus
[21] = Drug uptake in cytoplasm of human H460 cells assessed as perinuclear reticular staining at 10 uM incubated for 15 mins by fluorescence microscopy; type: ADME, cell-based; conditions: nci-h460, 0.25 h
[22] = test system: Poly(dA-dU)oligonucleotide; assay: Binding affinity to polyA-polyU dsRNA (unknown origin) assessed as biphasic thermal denaturation transitions in sodium cacodylate buffer at pH 7 at compound:polynucleotide concentration ratio of 0.2 by thermal denaturation assay; type: nucleic-acid assay
[23] = test system: Poly(dA-dU)oligonucleotide; assay: Binding affinity to polyA-polyU dsRNA (unknown origin) assessed as binding constant in sodium cacodylate buffer at pH 7 by fluorescence spectroscopy; type: nucleic-acid assay
[24] = test system: Poly(dA-dU)oligonucleotide; assay: Binding affinity to polyA-polyU dsRNA (unknown origin) assessed as ratio for bound compound to polynucleotide in sodium cacodylate buffer at pH 7 by fluorescence spectroscopy based Scatchard method; type: nucleic-acid assay
[25] = test system: Poly(dA-dU)oligonucleotide; assay: Binding affinity to polyA-polyU dsRNA (unknown origin) assessed as ratio for fluorescence intensity of compound to fluorescence intensity for compound-polynucleotide complex in sodium cacodylate buffer at pH 7 by fluorescence spectroscopy based Scatchard method; type: nucleic-acid assay
[26] = Drug uptake in nucleus of human H460 cells at 10 uM incubated for 15 mins by fluorescence microscopy; type: ADME, cell-based; conditions: nci-h460, 0.25 h
[27] = test system: Poly(dA-dU)oligonucleotide; assay: Binding affinity to polyA-polyU dsRNA (unknown origin) assessed as biphasic thermal denaturation transitions in sodium cacodylate buffer at pH 7 at compound:polynucleotide concentration ratio of 0.1 by thermal denaturation assay; type: nucleic-acid assay
[28] = test system: Poly(dA-dU)oligonucleotide; assay: Binding affinity to polyA-polyU dsRNA (unknown origin) assessed as stabilization of polynucleotide in sodium cacodylate buffer at pH 7 at compound:polynucleotide concentration ratio of 0.1 to 0.2 by thermal denaturation assay; type: nucleic-acid assay
[29] = Selectivity index, ratio of GI50 for human HaCaT cells to GI50 for human HCT116 cells incubated for 72 hrs by MTT assay; type: toxicity; conditions: HaCaT cells and HCT116 cells, read-out: RatioGI50

CCCCCCCCCCc1cn(-c2c(C#N)c3nc4ccccc4n3c3cc(F)ccc23)nn1
GI50 [1]: 3 µM
GI50 [2]: 5 µM
GI50 [3]: 7 µM
GI50 at 72 h [4]: 3500 nM

N#Cc1c(-n2cc(CCO)nn2)c2ccccc2n2c1nc1ccccc12
GI50 [1]: 3.5 µM
GI50 [2]: 4.2 µM
GI50 [3]: 13 µM
GI50 at 72 h [4]: 3300 nM

COc1cc([C@@H]2c3cc4c(cc3[C@@H](O[C@@H]3O[C@@H]5CO[C@@H](C)O[C@H]5[C@H](O)[C@H]3O)[C@H]3COC(=O)[C@H]23)OCO4)cc(OC)c1O [ETOPOSIDE]
GI50 [1]: 5 µM
GI50 [2]: 1 µM
GI50 [3]: 0.1 µM

N#Cc1c(-n2cc(CCO)nn2)c2ccc(F)cc2n2c1nc1ccccc12
GI50 [1]: 0.6 µM
GI50 [2]: 2 µM
GI50 [3]: 1 µM
GI50 at 72 h [4]: 730 nM
log Ks [5]: 5
Ratio [6]: 0.08
Ratio [7]: 0.5
ΔTm [8]: 1.3 °C
ΔTm [9]: 0 °C
Activity [10]: Active
Drug uptake [11]: Active
Drug uptake [12]: Not Active
solubility [13]: Soluble
Activity [14]: Active
Activity [15]: Active
Activity [16]: Active
Activity [17]: Active
Activity [18]: Active
Activity [19]: Active
Activity [20]: Active

N#Cc1c(-n2cc(-c3cc(C(F)(F)F)cc(C(F)(F)F)c3)nn2)c2ccccc2n2c1nc1ccccc12
GI50 [1]: 1 µM
GI50 [2]: 4 µM
GI50 [3]: 1 µM
GI50 at 72 h [4]: 2200 nM

N#Cc1c(-n2cc(-c3cc(C(F)(F)F)cc(C(F)(F)F)c3)nn2)c2ccc(F)cc2n2c1nc1ccccc12
GI50 [1]: 2 µM
GI50 [2]: 4.5 µM
GI50 [3]: 2 µM
GI50 at 72 h [4]: 2100 nM

CCCCCCCCCCc1cn(-c2c(C#N)c3nc4ccccc4n3c3ccccc23)nn1
GI50 [1]: 35 µM
GI50 [2]: 28.5 µM
GI50 [3]: 62 µM

CCCCCc1ccc(-c2cn(-c3c(C#N)c4nc5ccccc5n4c4cc(F)ccc34)nn2)cc1
GI50 [1]: 7 µM
GI50 [2]: 24 µM
GI50 [3]: 32 µM

N#Cc1c(-n2cc(C3CC3)nn2)c2ccccc2n2c1nc1ccccc12
GI50 [1]: 10 µM
GI50 [2]: 3 µM
GI50 [3]: 52 µM

N#Cc1c(-n2cc(CCO)nn2)c2ccc(-n3cc(CCO)nn3)cc2n2c1nc1ccccc12
GI50 [1]: 59 µM
GI50 [2]: 35 µM
GI50 [3]: ≥ 100 µM

N#Cc1c(-n2cc(C3CC3)nn2)c2ccc(-n3cc(C4CC4)nn3)cc2n2c1nc1ccccc12
GI50 [1]: 1.6 µM
GI50 [2]: 3 µM
GI50 [3]: 3 µM
GI50 at 72 h [4]: 3240 nM

CCCCCc1ccc(-c2cn(-c3ccc4c(-n5cc(-c6ccc(CCCCC)cc6)nn5)c(C#N)c5nc6ccccc6n5c4c3)nn2)cc1
GI50 [1]: 8 µM
GI50 [2]: 18 µM
GI50 [3]: 16 µM

N#Cc1c(-n2cc(CNS(=O)(=O)c3ccc(F)cc3)nn2)c2ccccc2n2c1nc1ccccc12
GI50 [1]: 3.5 µM
GI50 [2]: 4.2 µM
GI50 [3]: 13 µM
GI50 at 72 h [4]: 2900 nM

N#Cc1c(-n2cc(CCCCl)nn2)c2ccccc2n2c1nc1ccccc12
Drug uptake [21]: Active
ΔTm [22]: 0.4 to 25.3 °C
GI50 [1]: 1 µM
GI50 [2]: 1.5 µM
GI50 [3]: 2 µM
GI50 at 72 h [4]: 1000 nM
log Ks [5]: 6.1
Ratio [6]: 0.4
Ratio [7]: 0.3
log Ks [23]: 6
Ratio [24]: 0.3
Ratio [25]: 0.2
ΔTm [8]: 1.2 °C
Drug uptake [26]: Not Active
solubility [13]: Soluble
Activity [14]: Active
Activity [15]: Active
ΔTm [27]: 0.2 to 17 °C
Activity [16]: Active
Activity [28]: Active
Activity [18]: Active
Activity [19]: Active
Activity [20]: Active

CCCCCc1ccc(-c2cn(-c3c(C#N)c4nc5ccccc5n4c4ccccc34)nn2)cc1
GI50 [1]: 34 µM
GI50 [2]: 35 µM
GI50 [3]: 32 µM

N#Cc1c(-n2cc(CCCCl)nn2)c2ccc(F)cc2n2c1nc1ccccc12
ΔTm [22]: 0.7 to 20.7 °C
GI50 [1]: 0.5 µM
GI50 [2]: 2 µM
GI50 [3]: 0.7 µM
GI50 at 72 h [4]: 3500 nM
log Ks [5]: 5.2
Ratio [6]: 0.1
Ratio [7]: 0.5
log Ks [23]: 5.9
Ratio [24]: 0.1
Ratio [25]: 0.4
ΔTm [8]: 0.5 °C
Activity [10]: Active
Drug uptake [11]: Active
Drug uptake [12]: Not Active
selectivity ratio at 72 h [29]: > 7
solubility [13]: Soluble
Activity [14]: Active
Activity [15]: Active
ΔTm [27]: 0.7 to 16.6 °C
Activity [16]: inactive
Activity [28]: Active
Activity [17]: Active
Activity [18]: Active
Activity [19]: Active
Activity [20]: Active

CCCCCCCCCCc1cn(-c2ccc3c(-n4cc(CCCCCCCCCC)nn4)c(C#N)c4nc5ccccc5n4c3c2)nn1
GI50 [1]: 16 µM
GI50 [2]: 15 µM
GI50 [3]: 17 µM

N#Cc1c(-n2cc(CCCCl)nn2)c2ccc(-n3cc(CCCCl)nn3)cc2n2c1nc1ccccc12
GI50 [1]: 2.5 µM
GI50 [2]: 6.9 µM
GI50 [3]: 3 µM
GI50 at 72 h [4]: 3200 nM
log Ks [5]: 5.4
Ratio [6]: 0.1
Ratio [7]: 0.8
ΔTm [8]: 1.5 °C
ΔTm [9]: 0 °C
Drug uptake [11]: Active
Drug uptake [12]: Not Active
solubility [13]: Soluble
Activity [14]: Active
Activity [15]: Active
Activity [16]: Active
Activity [18]: Active
Activity [19]: Active
Activity [20]: Active

N#Cc1c(-n2cc(-c3ccc(Br)cc3)nn2)c2ccccc2n2c1nc1ccccc12
GI50 [1]: 25 µM
GI50 [2]: 31 µM
GI50 [3]: 59.5 µM

N#Cc1c(-n2cc(CNS(=O)(=O)c3ccc(F)cc3)nn2)c2ccc(F)cc2n2c1nc1ccccc12
GI50 [1]: 2 µM
GI50 [2]: 3.9 µM
GI50 [3]: 3.4 µM
GI50 at 72 h [4]: 2900 nM
